Source: patent US9029393B2, “Adenosine receptor ligands and uses thereof” (Kaldi Pharma, SAS, priority 2009, dated 2015)
Where a name gives a salt, the structure may show the parent alone.

Assays:
[1] = target: hA2A receptor (Homo sapiens (Human), UniProt P29274); assay: A2A FRET-based binding assay; settings: HEK GFP-A2A stable cell line, dyed CGS15943-derived probe
Description: Assay protocol: Compounds were evaluated on an in-vitro binding assay developed based on the technology described in the patent WO 98/55873. This assay was developed from hA2A receptor that was fused at its amino terminal domain to Green Fluorescent Protein (GFP) and stably expressed in HEK cells. The probe used is a dyed ligand derived from the non-selective CGS15943. For the FRET-binding experiment, HEK GFP-A2A stable cell line was seeded onto poly-D-lysine precoated black-walled 96-well plates in normal growth media (0.7 10^5 cells per well). After 24 hours of culture at 37° C., the cell media was removed and cells were washed. The tested compounds were applied on cells by the FLIPR^TETRA® (Molecular Devices®) and incubated for 10 minutes prior to addition of the dyed probe. When a drug interacts with the receptor, the FRET signal measured by the variation of GFP fluorescence at 510 nm is disrupted. The time curves of ligand binding were recorded during 1000 seconds. (excitation Light Emitting Diode 470-495 nm, emission 510+/−10 nm). The percentage of inhibition allows the evaluation of the inhibitory activity of compounds in comparison to the antagonist A2A reference CGS15943. The dose-inhibition curves were fitted with variable slope, using GraphPad® Prism software, in order to determine […] and Ki values. The dose-inhibition experiments were all performed in duplicate, three times independently.

Chain of hA2A receptor (P29274 whole entry, the tested form may be a part): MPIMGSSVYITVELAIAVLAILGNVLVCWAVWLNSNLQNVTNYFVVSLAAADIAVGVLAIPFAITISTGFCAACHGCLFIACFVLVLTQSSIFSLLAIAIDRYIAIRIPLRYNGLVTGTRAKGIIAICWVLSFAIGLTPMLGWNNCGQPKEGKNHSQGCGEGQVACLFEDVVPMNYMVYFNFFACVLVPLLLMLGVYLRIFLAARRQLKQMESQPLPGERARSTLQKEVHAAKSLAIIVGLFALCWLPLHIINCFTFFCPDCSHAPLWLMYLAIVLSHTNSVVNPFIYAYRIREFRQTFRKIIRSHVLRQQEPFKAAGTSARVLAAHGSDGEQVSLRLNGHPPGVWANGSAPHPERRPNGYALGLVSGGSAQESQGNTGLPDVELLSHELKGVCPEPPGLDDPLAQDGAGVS

| SMILES | melting point [°C] | Ki [1] [nM] |
| --- | --- | --- |
| COCCOCCn1nc(-c2cnc3ccc(F)cn23)c2ccc(C(=O)N3CCCCCC3)cc21.Cl | 159 to 165 |  |
| Cl.O=C(c1ccc2c(-c3cnc4ccc(F)cn34)nn(CCN3CCOCC3)c2c1)N1CCCCCC1 | 230 to 245 |  |
| CCN(C(=O)c1ccc2c(-c3cnc4ccc(F)cn34)noc2c1)C(C)C.Cl | 219 to 225 |  |
| Cl.O=C(c1ccc2c(-c3cnc4ccc(F)cn34)noc2c1)N1CCCCC1 | 203 to 205 |  |
| Cl.N#Cc1ccc2ncc(-c3noc4cc(C(=O)N5CCCCCC5)ccc34)n2c1 | 234 to 235 |  |
| Cc1ccc2ncc(-c3nn(C)c4cc(C(=O)N5CCCCCC5)ccc34)n2c1.Cl | > 250 |  |
| Cl.Cn1nc(-c2cnc3ccc(C4CC4)cn23)c2ccc(C(=O)N3CCCCCC3)cc21 | > 250 |  |
| CN(C(=O)c1ccc2c(-c3cnc4ccc(F)cn34)nn(C)c2c1)c1ccccc1.Cl | > 250 |  |
| Cl.Cn1nc(-c2cnc3ccc(F)cn23)c2ccc(C(=O)N3CCCC4CCCCC43)cc21 (stereo not drawn) | 248 to 249 |  |
| Cl.Cn1nc(-c2cnc3ccc(F)cn23)c2ccc(C(=O)N(CC3CC3)C3CCCCC3)cc21 | 235 to 245 |  |
| Cl.Cn1nc(-c2cnc3ccc(F)cn23)c2ccc(C(=O)N3CCCCCCCC3)cc21 (hydrate or solvate) | 240 to 245 |  |
| Cl.Cn1nc(-c2cnc3ccc(C#N)cn23)c2ccc(C(=O)N3CCCCC3)cc21 (hydrate or solvate) | > 250 |  |
| Cl.Cn1nc(-c2cnc3ccc(F)cn23)c2ccc(C(=O)N3CCCCCCC3)cc21 (hydrate or solvate) [Example 97, Azocan-1-yl-[3-(6-fluoro-imidazo[1,2-a]pyridin-3-yl)-1-methyl-1H-indazol-6-yl]-methanone, chlorhydrate salt] | 241 to 249 |  |
| COC[C@H]1CCCN1C(=O)c1ccc2c(-c3cnc4ccc(C#N)cn34)nn(C)c2c1.Cl (hydrate or solvate) [Example 101, 3-(1-Methyl-6-{[(2R)-2-(methoxymethyl)pyrrolidin-1-yl]carbonyl}-1H-indazol-3-yl)imidazo[1,2-a]pyridine-6-carbonitrile, chlorhydrate salt] | 230 to 235 |  |
| N#Cc1ccc2ncc(C(=O)c3ccc(C(=O)N4CCCCCC4)cc3F)n2c1 [Example 73, 3-[4-(Azepan-1-ylcarbonyl)-2-fluorobenzoyl]imidazo[1,2-a]pyridine-6-carbonitrile] | 128 to 130 |  |
| Cl.Cn1nc(-c2cnc3ccc(C(F)(F)F)cn23)c2ccc(C(=O)N3CCCCCC3)cc21 [Example 85, [6-(Azepan-1-ylcarbonyl)]-1-methyl-3[6-(trifluoromethyl)-imidazo[1,2-a]pyridin-3-yl]-1H-indazole, HCl salt] | 202 to 204 | 177 ± 5 |
| Cl.O=C(c1ccc2c(-c3cnc4ccc(F)cn34)nn(Cc3ccccc3)c2c1)N1CCCCCC1 [Example 107, Azepan-1-yl-[1-benzyl-3-(6-fluoro-imidazo[1,2-a]pyridin-3-yl)-1H-indazol-6-yl]-methanone, HCl salt] | 134 to 135 | 34 ± 5 |
| N#Cc1ccc2ncc(-c3noc4cc(C(=O)N5CCOCC5)ccc34)n2c1 [Example 125, 3-[6-(Morpholin-4-ylcarbonyl)-1,2-benzisoxazol-3-yl]imidazo[1,2-a]pyridine-6-carbonitrile, HCl salt] |  | 147 ± 54 |
| Nc1nc(-c2cnc3ccc(F)cn23)c2ccc(C(=O)N3CCCCCC3)cc2n1 [Example 136, 2-Amino-7-(azepan-1-ylcarbonyl)-4-(6-fluoroimidazo[1,2-a]pyridin-3-yl)quinazoline, HCl salt] |  | 84 ± 11 |
| CCN(C(=O)c1ccc(C(=O)c2cnc3ccc(Cl)nn23)cc1)C1CCCCC1 [Example 139, N-Cyclohexyl-N-ethyl-4-(6-chloroimidazo[1,2-b]pyridazin-3-ylcarbonyl)-benzamide] |  | 459 ± 270 |

The remaining lines, values ahead:

| melting point [°C] | Ki [1] [nM] | SMILES |
| --- | --- | --- |
| 139 to 140 |  | Cl.O=C(c1ccc2c(-c3cnc4ccc(F)cn34)nn(CCc3ccccc3)c2c1)N1CCCCCC1 |
| > 250 |  | Cl.Cn1nc(-c2cnc3ccc(C#N)cn23)c2ccc(C(=O)N3CCCCCC3)cc21 |
| > 250 |  | CCc1ccc2ncc(-c3nn(C)c4cc(C(=O)N5CCCCCC5)ccc34)n2c1.Cl |
| > 250 |  | Cl.Cn1nc(-c2cnc3ccccn23)c2ccc(C(=O)N3CCCCCC3)cc21 |
| > 250 |  | CCN(C(=O)c1ccc2c(-c3cnc4ccc(F)cn34)nn(C)c2c1)C(C)C.Cl |
| > 250 |  | Cl.Cn1nc(-c2cnc3ccc(F)cn23)c2ccc(C(=O)N3CCCCC3)cc21 (hydrate or solvate) |
|  | 171 ± 104 | CCN(C(=O)c1ccc(C(=O)c2cnc3ccc(C#N)cn23)cc1)C1CCCCC1 [Example 7, 4-(6-Cyano-imidazo[1,2-a]pyridine-3-carbonyl)-N-cyclohexyl-N-ethyl-benzamide] |
|  | 34 ± 9 | CCN(C(=O)c1ccc(C(=O)c2cnc3ccc(F)cn23)cc1Cl)C1CCCCC1 [Example 24, 2-Chloro-N-cyclohexyl-N-ethyl-4-(6-fluoro-imidazo[1,2-a]pyridine-3-carbonyl)-benzamide] |
| 131 to 135 |  | CN(C(=O)c1ccc(C(=O)c2cnc3ccc(F)cn23)cc1)c1ccccc1 [Example 50, 4-(6-Fluoro-imidazo[1,2-a]pyridine-3-carbonyl)-N-methyl-N-phenyl-benzamide] |
| 141 to 145 | 188 ± 63 | CCN(C(=O)c1ccc(C(=O)c2cnc3ccccn23)cc1)c1ccccc1 [Example 56, N-Ethyl-4-(imidazo[1,2-a]pyridine-3-carbonyl)-N-phenyl-benzamide] |
| 193 to 199 | 291 ± 30 | CN1CCN(C(=O)n2nc(-c3cnc4ccc(F)cn34)c3ccc(C(=O)N4CCCCCC4)cc32)CC1.Cl [Example 111, Azepan-1-yl-[3-(6-fluoro-imidazo[1,2-a]pyridin-3-yl)-1-[(4-methylpiperazin-1-yl)carbonyl]-1H-indazol-6-yl]-methanone, HCl salt] |
|  | 348 ± 95 | O=C(c1ccc2c(-c3cnc4ccc(F)cn34)c[nH]c2c1)N1CCCCCC1 [Example 134, 3-[6-(Azepan-1-ylcarbonyl)-1H-indol-3-yl]-6-fluoroimidazo[1,2-a]pyridine] |
